Measured values published in patent US9624214B2, “Amino-substituted imidazo[1,2-a]pyridinecarboxamides and their use” (BAYER PHARMA AKTIENGESELLSCHAFT, priority 2012, dated 2017).
Counter-ions that a name gives are not always drawn.

Target: T1, recombinant guanylate cyclase reporter cell line (Rattus norvegicus, UniProt P19686+P20595)
T1 construct: expressed in transfected cells
T1 sequence (P20595 1-619): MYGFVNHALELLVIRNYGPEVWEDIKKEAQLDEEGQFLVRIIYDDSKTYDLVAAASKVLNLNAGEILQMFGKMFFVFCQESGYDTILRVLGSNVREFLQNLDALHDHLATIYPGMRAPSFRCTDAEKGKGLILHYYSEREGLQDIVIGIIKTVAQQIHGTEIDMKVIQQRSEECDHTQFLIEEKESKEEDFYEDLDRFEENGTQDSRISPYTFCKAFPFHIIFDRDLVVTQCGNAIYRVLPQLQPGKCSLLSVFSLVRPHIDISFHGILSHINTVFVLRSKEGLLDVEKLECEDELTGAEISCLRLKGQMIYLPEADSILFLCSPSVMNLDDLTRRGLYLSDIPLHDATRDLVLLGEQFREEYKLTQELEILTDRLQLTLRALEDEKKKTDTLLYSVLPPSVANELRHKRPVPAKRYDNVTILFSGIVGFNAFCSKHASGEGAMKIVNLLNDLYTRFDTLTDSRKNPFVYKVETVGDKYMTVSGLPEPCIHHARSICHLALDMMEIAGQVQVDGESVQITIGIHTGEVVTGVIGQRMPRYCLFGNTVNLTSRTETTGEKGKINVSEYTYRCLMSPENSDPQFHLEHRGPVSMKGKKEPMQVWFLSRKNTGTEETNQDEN
T1 sequence (P19686 1-690): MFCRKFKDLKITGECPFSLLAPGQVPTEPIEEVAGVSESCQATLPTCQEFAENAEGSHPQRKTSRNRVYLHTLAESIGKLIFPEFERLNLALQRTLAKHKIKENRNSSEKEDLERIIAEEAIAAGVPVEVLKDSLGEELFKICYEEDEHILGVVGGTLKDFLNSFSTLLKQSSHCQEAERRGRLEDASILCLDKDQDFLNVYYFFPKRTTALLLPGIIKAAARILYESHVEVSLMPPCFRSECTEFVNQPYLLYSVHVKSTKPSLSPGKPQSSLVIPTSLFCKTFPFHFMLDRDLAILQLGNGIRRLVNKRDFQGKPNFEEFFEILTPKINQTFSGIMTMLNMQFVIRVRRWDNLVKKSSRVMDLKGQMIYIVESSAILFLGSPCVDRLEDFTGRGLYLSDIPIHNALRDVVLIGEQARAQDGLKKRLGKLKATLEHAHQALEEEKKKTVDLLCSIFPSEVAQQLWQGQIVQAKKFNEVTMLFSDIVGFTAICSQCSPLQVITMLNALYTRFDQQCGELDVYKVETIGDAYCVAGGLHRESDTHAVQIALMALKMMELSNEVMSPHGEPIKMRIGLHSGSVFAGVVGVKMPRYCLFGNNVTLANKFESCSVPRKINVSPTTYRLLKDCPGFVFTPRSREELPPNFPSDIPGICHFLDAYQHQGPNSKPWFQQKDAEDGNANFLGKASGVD
Assay: B-2. Action on recombinant guanylate cyclase reporter cell line
Assay type: cell-based
Conditions: MEC = minimal effective concentration; in some cases mean values from individual determinations
Summary of the method: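 Compounds are tested on whole cells carrying a guanylate cyclase reporter construct. The lowest concentration giving an effect is recorded as the MEC.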

Structure (SMILES) | MEC [µM]
Cc1cc(OCCC(C(F)(F)F)C(F)(F)F)c2nc(C)c(C(=O)NCC(C)(N)CC(C)C)n2c1 (racemic) [Example 258, rac-N-(2-Amino-2,4-dimethylpentyl)-2,6-dimethyl-8-[4,4,4-trifluoro-3-(trifluoromethyl)butoxy]-imidazo[1,2-a]pyridine-3-carboxamide] | 1.00
Cc1cc(OCc2c(F)cccc2F)c2nc(C)c(C(=O)NCC(C)(N)C3CC3)n2c1 (racemic) [Example 259, rac-N-(2-Amino-2-cyclopropylpropyl)-8-[(2,6-difluorobenzyl)oxy]-2,6-dimethylimidazo[1,2-a]-pyridine-3-carboxamide] | 0.03
Cc1cc(OCc2c(F)cccc2F)c2nc(C)c(C(=O)NCC(C)(N)CCOCc3ccccc3)n2c1 (racemic) [Example 262, rac-N-[2-Amino-4-(benzyloxy)-2-methylbutyl]-8-[(2,6-difluorobenzyl)oxy]-2,6-dimethylimidazo-[1,2-a]pyridine-3-carboxamide] | 0.10
Cc1nc2c(OCc3c(F)cccc3F)cccn2c1C(=O)NCC(C)(N)COCc1ccccc1 (racemic) [Example 263, rac-N-[2-amino-3-(benzyloxy)-2-methylpropyl]-8-[(2,6-difluorobenzyl)oxy]-2-methylimidazo[1,2-a]pyridine-3-carboxamide] | 1.00
Cc1nc2c(OCc3c(F)cccc3F)cccn2c1C(=O)NCC(C)(N)CCOCc1ccccc1 (racemic) [Example 264, rac-N-[2-amino-4-(benzyloxy)-2-methylbutyl]-8-[(2,6-difluorobenzyl)oxy]-2-methylimidazo[1,2-a]pyridine-3-carboxamide] | 0.03
Cc1cc(OCc2c(F)cccc2F)c2nc(C)c(C(=O)NCC(C)(N)COCc3ccccc3)n2c1 (racemic) [Example 265, rac-N-[2-amino-3-(benzyloxy)-2-methylpropyl]-8-[(2,6-difluorobenzyl)oxy]-2,6-dimethylimidazo[1,2-a]pyridine-3-carboxamide] | 0.30
Cc1cc(OCc2c(F)cccc2F)c2nc(C)c(C(=O)NCC(C)(N)CCO)n2c1 (racemic) [Example 270, rac-N-(2-Amino-4-hydroxy-2-methylbutyl)-8-[(2,6-difluorobenzyl)oxy]-2,6-dimethylimidazo[1,2-a]pyridine-3-carboxamide] | 1.00
Cc1nc2c(OCc3c(F)cccc3F)cccn2c1C(=O)NCC(C)(N)CO (racemic) [Example 273, rac-N-(2-Amino-3-hydroxy-2-methylpropyl)-8-[(2,6-difluorobenzyl)oxy]-2-methylimidazo[1,2-a]-pyridine-3-carboxamide] | 1.00
CCCC(C)(N)CNC(=O)c1c(C)nc2c(OCc3c(F)cccc3F)c(F)ccn12 (racemic) [Example 277, rac-N-(2-Amino-2-methylpentyl)-8-[(2,6-difluorobenzyl)oxy]-7-fluoro-2-methylimidazo[1,2-a]-pyridine-3-carboxamide] | 1.00
Cc1cc(OCc2c(F)cccc2F)c2nc(C)c(C(=O)NCC(C)(N)CF)n2c1 (racemic) [Example 282, rac-N-(2-amino-3-fluoro-2-methylpropyl)-8-[(2,6-difluorobenzyl)oxy]-2,6-dimethylimidazo[1,2-a]pyridine-3-carboxamide Formate] | 0.3
CCCC(C)(N)CNC(=O)c1c(C)nc2c(OCc3c(F)ccc(F)c3F)cc(C)cn12 (racemic) [Example 293, rac-N-(2-amino-2-methylpentyl)-2,6-dimethyl-8-[(2,3,6-trifluorobenzyl)oxy]imidazo[1,2-a]pyridine-3-carboxamide] | 0.03
Cc1cc(OCc2c(F)cccc2F)c2nc(C)c(C(=O)NCC(C)(N)Cc3ccc(F)cc3)n2c1 (racemic) [Example 296, rac-N-[2-amino-3-(4-fluorophenyl)-2-methylpropyl]-8-[(2,6-difluorobenzyl)oxy]-2,6-dimethylimidazo[1,2-a]pyridine-3-carboxamide] | 0.10
Cc1cc(OCc2c(F)cccc2F)c2nc(C)c(C(=O)NCC(C)(N)Cc3ccccn3)n2c1 (racemic) [Example 297, rac-N-[2-amino-2-methyl-3-(pyridin-2-yl)propyl]-8-[(2,6-difluorobenzyl)oxy]-2,6-dimethylimidazo[1,2-a]pyridine-3-carboxamide] | 0.10
Cc1cc(OCc2c(F)cccc2F)c2nc(C)c(C(=O)NC3CCNCC3(F)F)n2c1 (racemic) [Example 299, rac-8-[(2,6-difluorobenzyl)oxy]-N-(3,3-difluoropiperidin-4-yl)-2,6-dimethylimidazo[1,2-a]pyridine-3-carboxamide] | 0.10
CCCC(C)(N)CNC(=O)c1c(CC)nc2c(OCc3c(F)cccc3F)cc(C)cn12 (racemic) [Example 301, rac-N-(2-amino-2-methylpentyl)-8-[(2,6-difluorobenzyl)oxy]-2-ethyl-6-methylimidazo[1,2-a]pyridine-3-carboxamide] | 0.10
Cc1cc(OCc2c(F)cccc2F)c2nc(C)c(C(=O)NC3CCNC(C(F)(F)F)C3)n2c1 (racemic) [Example 302, rac-8-[(2,6-difluorobenzyl)oxy]-2,6-dimethyl-N-[2-(trifluoromethyl)piperidin-4-yl]imidazo[1,2-a]pyridine-3-carboxamide] | 0.10
CCCC(C)(N)CNC(=O)c1c(C)nc2c(OCc3cccc(F)c3F)cc(C)cn12 (racemic) [Example 303, rac-N-(2-amino-2-methylpentyl)-8-[(2,3-difluorobenzyl)oxy]-2,6-dimethylimidazo[1,2-a]pyridine-3-carboxamide] | 0.20
Cc1cc(OCc2c(F)cccc2F)c2nc(C)c(C(=O)NCC(C)(N)Cc3nc4ccccc4s3)n2c1 (racemic) [Example 310, rac-N-[2-amino-3-(1,3-benzothiazol-2-yl)-2-methylpropyl]-8-[(2,6-difluorobenzyl)oxy]-2,6-dimethylimidazo[1,2-a]pyridine-3-carboxamide] | 0.30
CCCC(C)(N)CNC(=O)c1c(C)nc2c(OCc3c(F)c(F)cc(F)c3F)cc(C)cn12 (racemic) [Example 311, rac-N-(2-amino-2-methylpentyl)-2,6-dimethyl-8-[(2,3,5,6-tetrafluorobenzyl)oxy]imidazo[1,2-a]pyridine-3-carboxamide] | 0.30
Cc1cc(OCc2c(F)cccc2F)c2nc(C)c(C(=O)NC3CNCC(F)(F)C3)n2c1 (racemic) [Example 312, rac-8-[(2,6-difluorobenzyl)oxy]-N-(5,5-difluoropiperidin-3-yl)-2,6-dimethylimidazo[1,2-a]pyridine-3-carboxamide] | 0.30
Cc1cc(OCc2c(F)cccc2F)c2nc(C)c(C(=O)NC3CCCCNC3)n2c1 (racemic) [Example 316, rac-N-(azepan-3-yl)-8-[(2,6-difluorobenzyl)oxy]-2,6-dimethylimidazo[1,2-a]pyridine-3-carboxamide] | 0.30
CCCC(C)(N)CNC(=O)c1c(C)nc2c(OCc3cccc(C)c3F)cc(C)cn12 (racemic) [Example 317, rac-N-(2-amino-2-methylpentyl)-8-[(2-fluoro-3-methylbenzyl)oxy]-2,6-dimethylimidazo[1,2-a]pyridine-3-carboxamide] | 0.30
